Experimental data reported in patent US20040033213A1, “Methods of modulating dendritic cells using adjuvants” (Corixa Corporation, priority 2002, published 2004).

What was measured:
Format in all cases: cell-based
[1] = test system: Human d7 Cultured Dendritic Cells; assay: Flow cytometry phenotype analysis of human d7 cultured dendritic cells after 24 h stimulation; conditions: for HLA-DR MFI: 7 day DCs, 24 h stimulation
[2] = test system: cultured human dendritic cells (DC); assay: Flow cytometry of cell surface activation markers on human DCs restimulated 72 hours with AGPs (titration)
Experimental: Dendritic cells are developed in-vitro from human CD14+ monocyte precursors using standard 7 day GM-CSF ([…]) and IL-4 ([…]) culture conditions. The cultured DCs are >90% CD11c^+/HLA-DR^+/lineage^− by flow cytometry analysis. FIGS. 15-18 show the results of flow cytometry analysis of gated CD11c^+/HLA-DR^+/lineage^− human DCs after they were restimulated in-vitro for 72 hours in the presence of selected AGPs at a titration range of 0.1 μg/ml-2 μg/ml. Data is expressed as the percent of gated DCs which are positive for the indicated marker (y-axis) versus the logo10 of the AGP or lipid A concentration. R595 LPS was used in each induction at 10 ng/ml as a positive control—the negative control was unstimulated human dendritic cells cultured for 72 hours in the same medium conditions used for AGP stimulation. Data was analyzed using non-linear regression analysis—all data was modeled using a 3rd order polynomial to determiine the best curve fit.

[3] = test system: murine bone marrow derived DCs + D011.10 T cells; assay: APC function of ova-pulsed, lipid A potentiated murine DCs co-cultured with D011.10 T cells (cytokine ELISA)
Text: These antigen pulsed, lipid A potentiated cells were then washed thoroughly and titered against ova-specific T cell effector cells in vitro at an APC: T cell ratio titration of 1:1 out to as high as 1:512. The effector T cells in this in vitro assay were the antigen naive, but antigen (ova) specific, MHC restricted I-A^d splenic T cells from transgenic D011.10 mice.
D011.10 TCR-transgenic mice were used in these experiments as donors of antigen specific naive T cells. In their germline DNA these mice contain rearranged TCR-Vα and -Vβ genes that encode a T cell receptor (TCR) specific for the ovalbumin peptide 323-339 bound to IA^d (Balb/c) Class II MHC molecules. The transgenic ova peptide specific TCR can be detected with the KJ1-26 monoclonal antibody (mAb) that binds only to this particular TCR heterodimer. These cells provide a ready source of “normal” antigen (ova)-specific effector T cells. Effective antigen-mediated APC stimulation of those T cells is generally measured by ELISA quantitation of IL-2 or IFN-γ in the culture supernatants of DC+D011.10 T cells after 24-48 hours of incubation.
In one experiment, murine bone marrow derived DCs (6 day cultures) were pulsed with ova (50 μg/ml-5×10^5 cells/ml) and then potentiated overnight with LPS(R595), MPL® immunostimulant-S, RC-527, RC-529 or RC-544 prior to being cultured together with naive D011.10 effector T cells (FIGS. 1-7). The APC function of these DCs as measured by their ability to stimulate IL-2, IFN-γ IL-12 (p70) and IL-12 (p40) secretion in the DC+D011.10 co-culture systems was analyzed. All of the data shown in FIGS. 1-7 was developed from DCs maintained in lipid A induction cultures for either 15 or 38 hours prior to use in the T cell assay.

[4] = Exp. 091698, 24 h, LPS 10 ng/ml, others 100 ng/ml
[5] = Exp. 092398, 24 h, LPS 10 ng/ml, others 100 ng/ml
[6] = Exp. 093098, 24 h, LPS 10 ng/ml, others 100 ng/ml

Structure (SMILES): CCCCCCCCCCCCCC(=O)O[C@H](CCCCCCCCCCC)CC(=O)NCCO[C@@H]1O[C@H](CO)[C@@H](OP(=O)(O)O)[C@H](OC(=O)C[C@@H](CCCCCCCCCCC)OC(=O)CCCCCCCCCCCCC)[C@H]1NC(=O)C[C@@H](CCCCCCCCCCC)OC(=O)CCCCCCCCCCCCC.CCN(CC)CC [RC-529, 2-[(R)-3-Tetradecanoyloxytetradecanoylamino]ethyl 2-Deoxy-4-O-phosphono-3-O-[(R)-3-tetradecanoyoxytetradecanoyl]-2-[(R)-3-tetradecanoyoxytetradecanoylamino]-β-D-glucopyranoside triethylammonium salt]
- CD 1a % positive cells [1, 4]: 94.3%
- CD 1a MFI [1, 4]: 9.29
- CD 4 % positive cells [1, 4]: 77.0%
- CD 4 MFI [1, 4]: 2.44
- CD 14 % positive cells [1, 4]: 7.5%
- CD 35 % positive cells [1, 4]: 47.6%
- CD 35 MFI [1, 4]: 2.66
- CD 40 MFI [1, 4]: 22.0
- CD 44 MFI [1, 4]: 285
- CD 54 MFI [1, 4]: 28.2
- CD 62 L % positive cells [1, 4]: 6.4%
- CD 69 % positive cells [1, 4]: 4.4%
- CD 80 % positive cells [1, 4]: 98.9%
- CD 80 MFI [1, 4]: 6.19
- CD 83 % positive cells [1, 4]: 71.0%
- CD 83 MFI [1, 4]: 2.89
- CD 86 % positive cells [1, 4]: 98.7%
- CD 86 MFI [1, 4]: 9.30
- CD 95 % positive cells [1, 4]: 53.8%
- CD 95 MFI [1, 4]: 1.12
- HLA-DR MFI ([1]; Exp. 091698, LPS 10 ng/ml, others 100 ng/ml): 88.2
- CD 1a % positive cells [1, 5]: 86.5%
- CD 1a MFI [1, 5]: 5.47
- CD 4 % positive cells [1, 5]: 71.6%
- CD 4 MFI [1, 5]: 2.65
- CD 14 % positive cells [1, 5]: 4.2%
- CD 35 % positive cells [1, 5]: 58.8%
- CD 35 MFI [1, 5]: 2.92
- CD 40 MFI [1, 5]: 31.5
- CD 54 MFI [1, 5]: 36.6
- CD 62 L % positive cells [1, 5]: 11.1%
- CD 69 % positive cells [1, 5]: 11.0%
- CD 80 % positive cells [1, 5]: 99.1%
- CD 80 MFI [1, 5]: 8.46
- CD 83 % positive cells [1, 5]: 94.7%
- CD 83 MFI [1, 5]: 3.32
- CD 86 % positive cells [1, 5]: 99.9%
- CD 86 MFI [1, 5]: 25.3
- CD 95 % positive cells [1, 5]: 90.4%
- CD 95 MFI [1, 5]: 1.43
- αC5aR + GAR Alexa % positive cells [1, 5]: 53.4%
- CD 44 MFI ([1]; Exp. 092398, 24 h, LPS 10 ng/ml, others 100 ng/ml, values printed with a trailing +): 442+
- GAR-Alexa % positive cells ([1]; Exp. 092398, 24 h, secondary reagent staining, LPS 10 ng/ml, others 100 ng/ml): 2.4%
- HLA-DR MFI ([1]; Exp. 092398, LPS 10 ng/ml, others 100 ng/ml): 158.8
- CCR 6 % positive cells [1, 6]: 5.3%
- CD 1a % positive cells [1, 6]: 80.1%
- CD 1a MFI [1, 6]: 6.51
- CD 3 % positive cells [1, 6]: 27.3%
- CD 3 MFI [1, 6]: 3.87
- CD 4 % positive cells [1, 6]: 77.9%
- CD 4 MFI [1, 6]: 2.97
- CD 11c % positive cells [1, 6]: 92.4%
- CD 11c MFI [1, 6]: 6.82
- CD 14 % positive cells [1, 6]: 3.9%
- CD 40 MFI [1, 6]: 26.1
- CD 54 MFI [1, 6]: 36.4
- CD 62 L % positive cells [1, 6]: 3.4%
- CD 80 % positive cells [1, 6]: 99.1%
- CD 80 MFI [1, 6]: 10.7
- CD 83 % positive cells [1, 6]: 82.4%
- CD 83 MFI [1, 6]: 3.38
- CD 86 % positive cells [1, 6]: 99.7%
- CD 86 MFI [1, 6]: 22.0
- CD 123 % positive cells [1, 6]: 44.1%
- CD 123 MFI [1, 6]: 1.90
- αC5aR + Alexa 488 % positive cells [1, 6]: 48.6%
- αC5aR + Alexa 488 MFI [1, 6]: 10.4
- HLA-DR MFI ([1]; Exp. 093098, LPS 10 ng/ml, others 100 ng/ml): 161.5
- upregulation of HLA-DR expression (in words) ([1]; RC-529 compared with RC-544, all three experiments): slightly more effective
- stimulating the expression of HLA-DR and co-stimulatory molecules (in words) ([1]; RC-529 compared with RC-544, three experiments): very comparable effects
- concentration at which the CD80 effect appears to plateau ([2]; 72 hours, FIG. 15): 1 µg/mL
- concentration at which the CD86 effect plateaus or maximizes ([2]; 72 hours, FIG. 18): 1 µg/mL
- cell surface expression of CD80 (in words) ([2]; 72 hours, titration 0.1-2 μg/ml, FIG. 15): lowest overall increase in CD80 expression
- DC expression of CD83 (in words) ([2]; 72 hours, titration 0.1-2 μg/ml, FIG. 16): weak overall increase in CD83 expression
- overall induction of DC maturation and co-stimulatory molecule expression (in words) ([2]; single analysis, one normal donor): very low to marginally positive CD80 and CD83 expression
- IFN-γ release by D011.10 T cells (in words) ([3]; DCs precultured 38 hours, FIG. 3): very comparable to each other
- IL-2 secretion (in words) ([3]; DCs prestimulated 15 hours, all T cell:APC ratios, FIG. 1): comparable in their ability to stimulate IL-2 secretion
- IL-12 (p70) in DC+D011.10 co-cultures (in words) ([3]; FIG. 5): weakest ability
- release of IL-12 (p40) homodimer in DC+D011.10 co-cultures (in words) ([3]; FIG. 7): moderately less potent than either RC-544 or MPL® immunostimulant-S
